In ChEMBL document CHEMBL4177686, “Depsidone and xanthones from Garcinia xanthochymus with hypoglycemic activity and the mechanism of promoting glucose uptake in L6 myotubes” (Bioorg Med Chem, 2017):
The source made the active and inactive calls. The rule behind the calls is not given here.

How the values were obtained:
L6 [1] = experiment: Increase in glucose uptake in rat L6 cells at 25 uM after 4 hrs relative to control; type: functional
L6 [2] = experiment: Cytotoxicity against rat L6 cells assessed as reduction in cell viability at 25 uM after 4 hrs by MTT assay; type: cell-based; conditions: l6, 4 h
L6 [3] = experiment: Increase in glucose uptake in rat L6 cells at <10 uM after 4 hrs; type: functional, cell-based
L6 [4] = experiment: Activation of AMPK in rat L6 cells assessed as ACC phosphorylation at Ser 79 residues at 25 uM by Western blot analysis; type: cell-based
L6 [5] = experiment: Increase in glucose uptake in rat L6 cells at 25 uM treated for 4 hrs post 15 mins PI3K inhibitor wortmanin treatment; type: functional, cell-based
L6 [6] = experiment: Increase in glucose uptake in rat L6 cells at 10 to 25 uM after 4 hrs; type: functional, cell-based
L6 [7] = experiment: Activation of PI3K/AKT/AMPK in rat L6 cells transfected with mOrange dye-based IRAP assessed as increase in GLUT4 translocation at 25 uM measured every 5 mins for 30 mins post 30 mins AMPK inhibitor compound C treatment by confocal microscopic analysis; type: cell-based
[8] = target: RAC-alpha serine/threonine-protein kinase (Rattus norvegicus) (UniProt P47196); experiment: Activation of AKT in rat L6 cells assessed as GSK3beta phosphorylation at Ser 9 residues at 12.5 to 25 uM by Western blot analysis; type: cell-based
RAC-alpha serine/threonine-protein kinase (Rattus norvegicus), sequence (P47196 whole entry): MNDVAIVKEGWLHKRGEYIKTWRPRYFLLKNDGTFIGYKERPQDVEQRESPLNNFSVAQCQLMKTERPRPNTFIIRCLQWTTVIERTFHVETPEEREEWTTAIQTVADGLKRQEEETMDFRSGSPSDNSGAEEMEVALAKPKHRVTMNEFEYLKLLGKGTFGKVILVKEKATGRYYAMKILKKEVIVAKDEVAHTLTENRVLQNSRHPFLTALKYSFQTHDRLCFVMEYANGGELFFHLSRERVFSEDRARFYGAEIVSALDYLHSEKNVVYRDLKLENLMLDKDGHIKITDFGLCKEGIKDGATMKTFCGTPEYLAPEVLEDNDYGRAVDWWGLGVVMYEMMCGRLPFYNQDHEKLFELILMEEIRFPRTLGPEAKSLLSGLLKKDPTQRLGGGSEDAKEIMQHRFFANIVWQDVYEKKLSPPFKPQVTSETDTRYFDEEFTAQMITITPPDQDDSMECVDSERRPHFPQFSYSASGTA

L6 [9] = experiment: Induction of AMPK phosphorylation at […] residues in rat L6 cells at 25 uM by Western blot analysis; type: cell-based
L6 [10] = experiment: Activation of PI3K/AKT/AMPK in rat L6 cells transfected with mOrange dye-based IRAP assessed as increase in GLUT4 translocation at 25 uM measured every 5 mins for 30 mins by confocal microscopic analysis relative to basal control; type: cell-based
L6 [11] = experiment: Activation of PI3K/AKT/AMPK in rat L6 cells transfected with mOrange dye-based IRAP assessed as increase in GLUT4 translocation at 25 uM measured every 5 mins for 30 mins post 15 mins PI3K inhibitor wortmanin treatment by confocal microscopic analysis; type: cell-based
L6 [12] = experiment: Increase in glucose uptake in rat L6 cells at 25 uM treated for 4 hrs post 30 mins AMPK inhibitor compound C treatment; type: functional, cell-based
[13] = target: RAC-alpha serine/threonine-protein kinase (Rattus norvegicus) (UniProt P47196); experiment: Induction of AKT phosphorylation at Ser 473 residues in rat L6 cells at 12.5 to 25 uM by Western blot analysis; type: cell-based
[14] = target: RAC-alpha serine/threonine-protein kinase (Rattus norvegicus) (UniProt P47196); experiment: Induction of AKT phosphorylation at Ser 473 residues in rat L6 cells by Western blot analysis; type: cell-based
L6 [15] = experiment: Increase in glucose uptake in rat L6 cells at 25 to 100 uM after 4 hrs; type: functional, cell-based
L6 [16] = experiment: Increase in glucose uptake in rat L6 cells at 25 uM after 2 to 4 hrs; type: functional, cell-based
L6 [17] = experiment: Cytotoxicity against rat L6 cells assessed as reduction in cell viability at 1 to 100 uM after 4 hrs by MTT assay; type: cell-based; conditions: l6, 4 h
L6 [18] = experiment: Increase in glucose uptake in rat L6 cells at 100 uM after 4 hrs; type: functional, cell-based
L6 [19] = experiment: Activation of AMPK phosphorylation in rat L6 cells assessed as ACC phosphorylation at Ser 79 residues at 12.5 to 25 uM by Western blot analysis; type: cell-based
L6 [20] = experiment: Induction of AMPK phosphorylation at […] residues in rat L6 cells at 12.5 to 25 uM by Western blot analysis; type: cell-based
L6 [21] = experiment: Increase in glucose uptake in rat L6 cells at 2 mM after 4 hrs relative to control; type: functional
L6 [22] = experiment: Increase in glucose uptake in rat L6 cells at 2 mM treated for 4 hrs post 30 mins AMPK inhibitor compound C treatment; type: functional, cell-based

For `CC(C)=CCC/C(C)=C/Cc1cc2c(=O)c3c(O)cc(O)cc3oc2c(O)c1O`, the Activity (L6 [1]) was “inactive” and the Activity (L6 [2]) was “Non-Toxic”.
In the case of `CC(C)=CCc1cc(O)c(O)c2oc3cc(O)cc(O)c3c(=O)c12`, the Activity (L6 [1]) is reported as “inactive” and the Activity (L6 [2]) is reported as “Non-Toxic”.
`COc1c2c(c(O)c3c(=O)c4c(O)ccc(O)c4oc13)C=CC(C)(C)O2` was tested, and the Activity (L6 [2]) was “Non-Toxic”.
For `CC(C)=CCc1c(O)cc(O)c2c(=O)c3cccc(O)c3oc12`, the Activity (L6 [2]) was “Non-Toxic”.
In the case of `COc1c(O)ccc2oc3c(O)cccc3c(=O)c12`, the Activity (L6 [2]) is reported as “Non-Toxic”.
With `C=CC(C)(C)c1cc(O)c2oc3c(O)cccc3c(=O)c2c1O` the Activity (L6 [3]) was “inactive”, the Activity (L6 [4]) was “Active” and the Activity (L6 [5]) was “inactive”. The Activity (L6 [6]) was “Active”, the Activity (L6 [7]) was “inactive” and the Activity [8] was “Active”. For the same compound, the Activity (L6 [9]) was “Active”, the Activity (L6 [10]) was “Active” and the Activity (L6 [11]) was “inactive”. For the same compound, the Activity (L6 [1]) was 208.4%, the Activity (L6 [12]) was “Active” and the Activity [13] was “Active”. For the same compound, the Activity [14] was “Dose-dependent effect”, the Activity (L6 [15]) was “inactive” and the Activity (L6 [16]) was “Active”. The Activity (L6 [2]) was “Non-Toxic” and the Activity (L6 [17]) was “Non-Toxic”.
With `CC1(C)C=Cc2c(c(O)c3oc4c(O)ccc(O)c4c(=O)c3c2O)O1` the Activity (L6 [1]) was “inactive” and the Activity (L6 [2]) was “Non-Toxic”.
With `O=c1c2cccc(O)c2oc2ccc(O)c(O)c12` the Activity (L6 [2]) was “Non-Toxic”.
`COc1c(O)ccc2c(=O)c3c(O)ccc(OC)c3oc12` was tested, and the Activity (L6 [2]) was “Non-Toxic”.
In the case of `COc1c(O)c(CC=C(C)C)cc2c(=O)c3c(O)ccc(O)c3oc12`, the Activity (L6 [2]) is reported as “Non-Toxic”.
In the case of `CC(C)=CCC/C(C)=C/Cc1c(O)cc2c(c1O)C(=O)Oc1c(CC=C(C)C)cc(O)c(O)c1O2`, the Activity (L6 [2]) is reported as “Non-Toxic”.
With `CC1(C)C=Cc2c(c(O)c3oc4ccc(O)cc4c(=O)c3c2O)O1` the Activity (L6 [2]) was “Non-Toxic”.
`CC(C)=CCc1c(O)c(O)c2oc3c(O)ccc(O)c3c(=O)c2c1CC=C(C)C` was tested, and the Activity (L6 [2]) was “Non-Toxic”.
In the case of `CC(C)=CCc1c(O)c(O)c2oc3c(CC=C(C)C)c(O)cc(O)c3c(=O)c2c1CC=C(C)C`, the Activity (L6 [2]) is reported as “Non-Toxic”.
`CC1(C)C=Cc2c(cc3oc4c(O)cccc4c(=O)c3c2O)O1` was tested, and the Activity (L6 [2]) was “Non-Toxic”.
In the case of `COc1cc(O)c2c(=O)c3cccc(O)c3oc2c1`, the Activity (L6 [2]) is reported as “Non-Toxic”.
With `CC(C)=CCc1c(O)c(O)c2oc3c(CC=C(C)C)c(O)cc(O)c3c(=O)c2c1CCC(C)(C)O` the Activity (L6 [2]) was “Non-Toxic”.
For `C=CC(C)(C)c1cc(O)c(O)c2c(=O)c3cc(CC=C(C)C)c(O)c(O)c3oc12`, the Activity (L6 [3]) was “inactive”, the Activity (L6 [5]) was “Active” and the Activity (L6 [6]) was “Active”. The Activity (L6 [7]) was “inactive”, the Activity [8] was “Active” and the Activity (L6 [10]) was “Active”. The Activity (L6 [11]) was “inactive”, the Activity (L6 [1]) was 166.2% and the Activity (L6 [12]) was “Active”. For the same compound, the Activity [13] was “Active”, the Activity (L6 [18]) was “inactive” and the Activity (L6 [15]) was “inactive”. For the same compound, the Activity (L6 [16]) was “Active”, the Activity (L6 [19]) was “Active” and the Activity (L6 [20]) was “Active”. The Activity (L6 [2]) was “Non-Toxic” and the Activity (L6 [17]) was “Non-Toxic”.
With `CC(C)=CCc1c(O)c(O)c2oc3c4c(cc(O)c3c(=O)c2c1CC=C(C)C)OC(C)(C)C=C4` the Activity (L6 [1]) was 195.28% and the Activity (L6 [2]) was “Non-Toxic”.
`CN(C)C(=N)NC(=N)N` [METFORMIN] was tested, and the Activity (L6 [21]) was 167.2% and the Activity (L6 [22]) was “Active”.
`CC(C)=CCC/C(C)=C/Cc1c(O)c(O)c2oc3cc(O)cc(O)c3c(=O)c2c1CCC(C)(C)O` was tested, and the Activity (L6 [2]) was “Non-Toxic”.
